Assays:
hP2Y2 Receptor = biological target: T1, hP2Y2 Receptor (Homo sapiens, UniProt P41231); assay: Inhibition of agonist-induced calcium mobilization, recombinant receptor in human astrocytoma cells; assay type: cell-based; settings: mean ± SEM
T1 construct: expressed in transfected cells; host or cells: human astrocytoma cells
Experimental: (§1) Inhibition of agonist-induced calcium mobilization was determined as previously described (Kaulich M. et al, Drug Dev. Res. 2003, 59, 72-81) using NG108-15 cells for the mouse P2Y2 receptor, or human recombinant P2Y receptors stably expressed in human astrocytoma cells (El-Tayeb, A. et al., J. Med. Chem. 2006, 49, 7076-87).
(§2) The data were analyzed using GraphPad Prism 4.0 (GraphPad Software, Inc., San Diego, Calif.).

P2Y12 [1] = biological target: T2, P2Y12 (Homo sapiens, UniProt Q9H244); settings: recent review article (Abbracchio et al. 2006); read-out: Ki value as P2Y12 antagonist; cited from earlier work
Target sequence in this assay (Q9H244 whole entry, species assumed): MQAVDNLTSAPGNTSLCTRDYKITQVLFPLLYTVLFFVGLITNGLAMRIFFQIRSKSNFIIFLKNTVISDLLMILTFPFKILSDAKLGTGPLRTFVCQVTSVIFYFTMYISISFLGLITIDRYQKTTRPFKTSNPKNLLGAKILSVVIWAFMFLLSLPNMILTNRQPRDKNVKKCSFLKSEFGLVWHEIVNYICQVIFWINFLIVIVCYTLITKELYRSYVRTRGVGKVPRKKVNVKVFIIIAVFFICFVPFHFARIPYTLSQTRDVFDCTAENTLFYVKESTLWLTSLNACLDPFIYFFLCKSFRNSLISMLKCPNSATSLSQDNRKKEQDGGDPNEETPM

P2Y12 [2] = biological target: T2, P2Y12; assay: GTP shift experiments (radioligand binding in presence and absence of GTP); design: Membranes were prepared from human outdated platelets from the blood bank; from tissue; host or cells: human platelets (University of Bonn blood bank), membrane preparation; settings: presence and absence of GTP (100 μM); no shift = antagonist rather than agonist
Experimental: (§3) Radioligand binding assays were performed using 5 nM [^3H]PSB-0413 and 100 μg of protein in Tris-HCl buffer 50 mM, pH 7.4, as previously described. (El-Tayeb, A., Griessmeier, K. J, Müller, C. E. Bioorg. Med. Chem. Lett. 2005, 15, 5450-52; Atzler, K. Doctoral Thesis, University of Bonn, 2006). Competition by 10 μM of test compound was initially determined. The mixture was incubated for 1 h at rt followed by filtration through GF/B filters. Nonspecific binding was determined with 1 mM ADP or 250 μM RB 2. […] At least three independent experiments were performed each in triplicate.
Selected compounds were investigated for their functionality in GTP shift experiments. Radioligand binding studies as described above were performed in the presence and absence of GTP (100 μM).
Target sequence in this assay (Q9H244 whole entry): as the sequence (Q9H244 whole entry, species assumed) above

rP2Y6 Receptor = rP2Y6 Receptor (Rattus norvegicus, UniProt Q63371); assay: Inhibition of agonist-induced calcium mobilization, recombinant receptor in human astrocytoma cells; assay type: cell-based; settings: mean ± SEM
Experimental: as §1, §2

hP2Y4 Receptor = hP2Y4 Receptor (Homo sapiens, UniProt P51582); assay: as above; assay type: cell-based; settings: mean ± SEM
Experimental: as §1, §2

[3] = biological target: T3, human platelet P2Y12 receptors (Homo sapiens, UniProt Q9H244); assay: Radioligand binding assay with [3H]PSB-0413 at human platelet membranes; settings: human platelet membranes, 5 nM [3H]PSB-0413, 1 h at rt; mean ± SEM; read-out: hP2Y12 Receptor Ki [μM ± SEM] vs. [3H]PSB-0413
T3 construct: Membranes were prepared from human outdated platelets from the blood bank; from tissue; host or cells: human platelets (University of Bonn blood bank), membrane preparation
Experimental: Membranes were prepared from human outdated platelets from the blood bank. Outdated human platelets were obtained from the University of Bonn blood bank 4-5 days after donation. Platelet rich plasma was washed by centrifugation (10 min at 1000 g) in a buffer consisting of 50 mM Tris-HCl, pH 7.4, 5 mM EDTA and 150 mM NaCl. The supernatant was centrifuged twice (48400 g for 60 min) and the resultant platelet pellet were resuspended in 5 mM Tris-HCl (pH 7.4) containing 5 mM EDTA. The platelets were homogenized by a homogenizer. The final suspension was stored frozen as multiple aliquots at −80° C. until needed. Protein concentrations were determined by the method of Lowry using a Sigma Chemie protein assay kit.
as §3, §2

mouse P2Y2 receptor = mouse P2Y2 receptor (Mus musculus, UniProt P35383); assay: Inhibition of agonist-induced calcium mobilization in NG108-15 cells; assay type: cell-based; settings: mean ± SEM, read-out: mP2Y2 Receptor IC50 (μM ± SEM)
Experimental: as §1, §2

T3 sequence (Q9H244 whole entry): as the sequence (Q9H244 whole entry, species assumed) above
hP2Y4 Receptor, sequence (P51582 whole entry): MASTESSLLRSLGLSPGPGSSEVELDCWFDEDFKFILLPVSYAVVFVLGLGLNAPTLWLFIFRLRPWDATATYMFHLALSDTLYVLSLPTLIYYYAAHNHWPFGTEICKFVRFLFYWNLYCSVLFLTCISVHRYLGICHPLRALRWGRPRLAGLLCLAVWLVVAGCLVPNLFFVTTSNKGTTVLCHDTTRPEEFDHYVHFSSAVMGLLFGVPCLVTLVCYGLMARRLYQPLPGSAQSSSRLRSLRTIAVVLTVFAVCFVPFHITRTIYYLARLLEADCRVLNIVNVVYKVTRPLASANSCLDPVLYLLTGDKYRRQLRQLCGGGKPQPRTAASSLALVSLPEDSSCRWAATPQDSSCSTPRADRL
rP2Y6 Receptor, sequence (Q63371 whole entry): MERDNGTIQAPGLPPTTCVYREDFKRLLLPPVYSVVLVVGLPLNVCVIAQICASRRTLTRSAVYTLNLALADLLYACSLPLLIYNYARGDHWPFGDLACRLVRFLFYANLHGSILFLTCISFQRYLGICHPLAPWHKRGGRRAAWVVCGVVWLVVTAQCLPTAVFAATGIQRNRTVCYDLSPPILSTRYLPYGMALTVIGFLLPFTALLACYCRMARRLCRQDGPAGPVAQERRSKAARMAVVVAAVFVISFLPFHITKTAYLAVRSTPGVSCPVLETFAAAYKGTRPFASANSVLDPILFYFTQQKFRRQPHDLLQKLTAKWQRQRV
T1 sequence (P41231 whole entry): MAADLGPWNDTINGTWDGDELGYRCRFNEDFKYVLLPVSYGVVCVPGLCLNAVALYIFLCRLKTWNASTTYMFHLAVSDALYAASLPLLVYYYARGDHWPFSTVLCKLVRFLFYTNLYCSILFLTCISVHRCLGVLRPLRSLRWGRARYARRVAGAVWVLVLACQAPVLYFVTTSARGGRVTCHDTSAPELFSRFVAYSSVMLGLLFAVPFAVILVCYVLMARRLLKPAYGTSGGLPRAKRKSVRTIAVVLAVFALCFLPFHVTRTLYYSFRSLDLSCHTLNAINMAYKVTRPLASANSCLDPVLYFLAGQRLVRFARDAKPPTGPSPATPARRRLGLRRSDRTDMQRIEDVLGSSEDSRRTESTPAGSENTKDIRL
mouse P2Y2 receptor, sequence (P35383 whole entry): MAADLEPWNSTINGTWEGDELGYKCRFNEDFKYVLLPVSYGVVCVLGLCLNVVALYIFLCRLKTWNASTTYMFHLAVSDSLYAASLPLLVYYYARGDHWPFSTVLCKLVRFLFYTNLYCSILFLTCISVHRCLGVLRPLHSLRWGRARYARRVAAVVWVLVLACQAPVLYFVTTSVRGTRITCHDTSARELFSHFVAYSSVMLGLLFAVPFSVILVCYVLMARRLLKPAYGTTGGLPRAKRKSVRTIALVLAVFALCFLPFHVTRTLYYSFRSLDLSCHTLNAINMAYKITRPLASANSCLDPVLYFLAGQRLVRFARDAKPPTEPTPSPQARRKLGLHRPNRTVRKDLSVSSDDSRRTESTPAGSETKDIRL

Row | Compound | IC50 (hP2Y2 Receptor) | IC50 (rP2Y6 Receptor) | IC50 (hP2Y4 Receptor) | Ki [3] | further results
1 | Nc1c(S(=O)(=O)O)cc(Nc2cccc([N+](=O)[O-])c2)c2c1C(=O)c1ccccc1C2=O [Entry 28] | 7.52 ± 0.82 µM |  |  |  | 
2 | Nc1c(S(=O)(=O)O)cc(Nc2ccc(Nc3nc(Cl)nc(Nc4cccc(S(=O)(=O)O)c4)n3)c(S(=O)(=O)O)c2)c2c1C(=O)c1ccccc1C2=O [Reactive Blue 2, reference compound] |  |  |  |  | Ki (P2Y12 [1]): 1.3 µM; right-shift of the concentration-inhibition curve in GTP shift experiments (P2Y12 [2]): did not
3 | COc1ccc(CCNc2cc(S(=O)(=O)O)c(N)c3c2C(=O)c2ccccc2C3=O)cc1OC [Entry 21] |  | > 100 µM | > 30 µM |  | 
4 | Nc1c(S(=O)(=O)O)cc(Nc2cccc(S(=O)(=O)O)c2)c2c1C(=O)c1ccccc1C2=O [Entry 1] |  | ~100 µM | 18.5 ± 2.5 µM | 3.81 ± 1.08 µM | 
5 | Nc1c(S(=O)(=O)O)cc(Nc2cccc(Cl)c2)c2c1C(=O)c1ccccc1C2=O [Entry 27] | 24.5 ± 10.4 µM | > 100 µM | > 3 µM | 6.76 ± 2.07 µM | 
6 | Nc1ncnc2c1ncn2[C@@H]1O[C@H](COP(=O)(O)OP(=O)(O)O)[C@@H](O)[C@H]1O [ADP, reference compound] |  |  |  |  | right-shift of the concentration-inhibition curve in GTP shift experiments (P2Y12 [2]): significant right-shift
7 | Nc1c(S(=O)(=O)[O-])cc(Nc2ccc(Nc3ncccn3)c(S(=O)(=O)[O-])c2)c2c1C(=O)c1ccccc1C2=O.[Na+].[Na+] [Entry 33] |  | 28.6 ± 2.7 µM | 9.04 ± 1.2 µM | 0.0507 ± 0.016 µM | right-shift of the concentration-inhibition curve in GTP shift experiments (P2Y12 [2]): did not
8 | Nc1c(S(=O)(=O)O)cc(Nc2ccccc2)c2c1C(=O)c1ccccc1C2=O [Entry 17] | 5.61 ± 0.47 µM |  |  | 9.83 ± 2.43 µM | IC50 (mouse P2Y2 receptor): 11.1 ± 3 µM
9 | COc1nc(Cl)nc(Nc2ccc(Nc3cc(S(=O)(=O)[O-])c(N)c4c3C(=O)c3ccccc3C4=O)cc2S(=O)(=O)[O-])n1.[Na+].[Na+] [Entry 37] |  |  |  | 0.66 ± 0.12 µM | right-shift of the concentration-inhibition curve in GTP shift experiments (P2Y12 [2]): did not
10 | Nc1ccc(Nc2cc(S(=O)(=O)O)c(N)c3c2C(=O)c2ccccc2C3=O)cc1S(=O)(=O)O [Entry 5] |  | 24.3 ± 3.4 µM | 11 ± 3 µM | 2.39 ± 0.65 µM | 
11 | Nc1c(S(=O)(=O)O)cc(Nc2ccc(Nc3ccccc3)cc2)c2c1C(=O)c1ccccc1C2=O [Entry 18] |  | > 1 µM | > 3 µM | 1.85 ± 0.57 µM | IC50 (mouse P2Y2 receptor): 30 ± 7 µM
12 | Nc1c(S(=O)(=O)O)cc(Nc2cccc3ccccc23)c2c1C(=O)c1ccccc1C2=O [Entry 25] | 6.67 ± 0.32 µM | 26.7 µM | 10.1 ± 1.4 µM |  | IC50 (mouse P2Y2 receptor): 10.7 ± 1 µM
13 | Nc1c(S(=O)(=O)O)cc(Nc2ccc(Cl)cc2)c2c1C(=O)c1ccccc1C2=O [Entry 15] | 4.46 ± 0.75 µM | > 10 µM | > 3 µM | 7.35 ± 1.72 µM | IC50 (mouse P2Y2 receptor): 20 ± 7 µM
14 | Nc1c(S(=O)(=O)[O-])cc(Nc2ccc(O)c(C(=O)O)c2)c2c1C(=O)c1ccccc1C2=O.[Na+] [Example 25, Sodium 1-amino-4-(3-carboxy-4-hydroxyphenylamino)-9,10-dioxo-9,10-dihydroanthracene 2-sulfonate] |  |  |  |  | melting point: > 300 °C

Reference: patent US20100210654A1, “NOVEL P2Y12 RECEPTOR ANTAGONISTS” (RHEINISCHE FRIEDRICH-WILHELMS UNIVERSITÄT BONN, priority 2007, published 2010)
